Measurements reported in ChEMBL document CHEMBL1142629, “New lipids from the tunicate Cystodytes cf. dellechiajei, as PLA2 inhibitors” (J Nat Prod, 2000).
In brackets after ≈: the same amount, converted by molar mass.

Tested on: Crotalus adamanteus
Assay: Inhibition of Crotalus adamanteus venom PLA2

Structure (SMILES): CCCCCCCCCCCCCCCCCCCC[C@@H](O)C(=O)N[C@@H](CO)[C@H](O)[C@H](O)CCCCCCCCCC(C)C
- ED50: 100 µg/mL (≈ 159 µM)
